Data: ChEMBL document CHEMBL4507290 (2021)

Assays:
[1] = target: Casein kinase I isoform delta (Homo sapiens) (UniProt P48730); conditions: Compound concentration 1000.0 nM
[2] = target: Protein-tyrosine kinase 6 (Homo sapiens) (UniProt Q13882); conditions: Compound concentration 1000.0 nM
[3] = target: Interleukin-1 receptor-associated kinase 1 (Homo sapiens) (UniProt P51617); conditions: Compound concentration 1000.0 nM
[4] = target: Serine/threonine-protein kinase PAK 5 (Homo sapiens) (UniProt Q9P286); conditions: Compound concentration 1000.0 nM
[5] = target: Mitogen-activated protein kinase 1 (Homo sapiens) (UniProt P28482); conditions: Compound concentration 1000.0 nM
[6] = target: Serine/threonine-protein kinase ULK1 (Homo sapiens) (UniProt O75385); conditions: Compound concentration 1000.0 nM
[7] = target: Phosphorylase b kinase regulatory subunit alpha, liver isoform (Homo sapiens) (UniProt P46019); conditions: Compound concentration 1000.0 nM
Phosphorylase b kinase regulatory subunit alpha, liver isoform (Homo sapiens), sequence (P46019 whole entry, canonical isoform): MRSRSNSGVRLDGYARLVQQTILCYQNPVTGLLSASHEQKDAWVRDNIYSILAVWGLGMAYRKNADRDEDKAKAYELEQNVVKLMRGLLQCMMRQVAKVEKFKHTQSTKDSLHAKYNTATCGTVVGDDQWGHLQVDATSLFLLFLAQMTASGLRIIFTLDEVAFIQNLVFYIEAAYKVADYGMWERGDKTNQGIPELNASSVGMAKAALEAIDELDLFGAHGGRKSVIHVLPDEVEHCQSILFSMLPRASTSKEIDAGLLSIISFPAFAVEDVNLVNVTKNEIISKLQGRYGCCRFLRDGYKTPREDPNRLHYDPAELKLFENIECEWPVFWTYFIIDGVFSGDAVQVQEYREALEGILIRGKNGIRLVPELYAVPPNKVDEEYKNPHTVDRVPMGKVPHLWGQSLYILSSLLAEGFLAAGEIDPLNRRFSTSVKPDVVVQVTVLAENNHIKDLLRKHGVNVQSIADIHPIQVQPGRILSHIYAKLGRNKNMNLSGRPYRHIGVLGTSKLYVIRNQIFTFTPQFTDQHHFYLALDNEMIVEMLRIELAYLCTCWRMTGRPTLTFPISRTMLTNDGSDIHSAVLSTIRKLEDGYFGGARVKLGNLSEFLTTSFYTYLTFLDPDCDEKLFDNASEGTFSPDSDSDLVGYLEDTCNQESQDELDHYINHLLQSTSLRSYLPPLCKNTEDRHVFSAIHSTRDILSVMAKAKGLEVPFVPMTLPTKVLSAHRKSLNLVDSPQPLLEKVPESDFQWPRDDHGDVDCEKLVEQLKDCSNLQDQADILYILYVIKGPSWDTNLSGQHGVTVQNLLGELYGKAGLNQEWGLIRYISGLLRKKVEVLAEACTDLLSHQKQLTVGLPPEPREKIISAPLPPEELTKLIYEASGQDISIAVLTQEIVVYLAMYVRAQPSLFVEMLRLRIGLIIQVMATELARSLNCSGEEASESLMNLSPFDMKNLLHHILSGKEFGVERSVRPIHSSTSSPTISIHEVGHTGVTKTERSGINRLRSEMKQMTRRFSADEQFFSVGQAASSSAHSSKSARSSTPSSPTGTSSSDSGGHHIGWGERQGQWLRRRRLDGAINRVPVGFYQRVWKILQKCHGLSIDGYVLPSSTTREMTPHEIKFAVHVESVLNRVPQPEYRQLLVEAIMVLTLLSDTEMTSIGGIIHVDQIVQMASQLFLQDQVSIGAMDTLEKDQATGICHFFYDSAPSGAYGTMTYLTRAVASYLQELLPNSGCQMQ

[8] = target: Proto-oncogene tyrosine-protein kinase receptor Ret (Homo sapiens) (UniProt P07949); conditions: Compound concentration 1000.0 nM
[9] = target: Mitogen-activated protein kinase kinase kinase 7 (Homo sapiens) (UniProt O43318); conditions: Compound concentration 1000.0 nM
[10] = target: Serine/threonine-protein kinase Nek3 (Homo sapiens) (UniProt P51956); conditions: Compound concentration 1000.0 nM
[11] = target: RAC-alpha serine/threonine-protein kinase (Homo sapiens) (UniProt P31749); conditions: Compound concentration 1000.0 nM
[12] = target: Tyrosine-protein kinase receptor Tie-1 (Homo sapiens) (UniProt P35590); conditions: Compound concentration 1000.0 nM
[13] = target: Myosin-IIIa (Homo sapiens) (UniProt Q8NEV4); conditions: Compound concentration 1000.0 nM
[14] = target: Cyclin-dependent kinase-like 5 (Homo sapiens) (UniProt O76039); conditions: Compound concentration 1000.0 nM
[15] = target: Serine/threonine-protein kinase Sgk3 (Homo sapiens) (UniProt Q96BR1); conditions: Compound concentration 1000.0 nM
[16] = target: STE20/SPS1-related proline-alanine-rich protein kinase (Homo sapiens) (UniProt Q9UEW8); conditions: Compound concentration 1000.0 nM
[17] = target: Phosphatidylinositol 5-phosphate 4-kinase type-2 gamma (Homo sapiens) (UniProt Q8TBX8); conditions: Compound concentration 1000.0 nM
[18] = target: Phosphatidylinositol 4,5-bisphosphate 3-kinase catalytic subunit gamma isoform (Homo sapiens) (UniProt P48736); conditions: Compound concentration 1000.0 nM
Phosphatidylinositol 4,5-bisphosphate 3-kinase catalytic subunit gamma isoform (Homo sapiens), sequence (P48736 whole entry, looked up, canonical isoform): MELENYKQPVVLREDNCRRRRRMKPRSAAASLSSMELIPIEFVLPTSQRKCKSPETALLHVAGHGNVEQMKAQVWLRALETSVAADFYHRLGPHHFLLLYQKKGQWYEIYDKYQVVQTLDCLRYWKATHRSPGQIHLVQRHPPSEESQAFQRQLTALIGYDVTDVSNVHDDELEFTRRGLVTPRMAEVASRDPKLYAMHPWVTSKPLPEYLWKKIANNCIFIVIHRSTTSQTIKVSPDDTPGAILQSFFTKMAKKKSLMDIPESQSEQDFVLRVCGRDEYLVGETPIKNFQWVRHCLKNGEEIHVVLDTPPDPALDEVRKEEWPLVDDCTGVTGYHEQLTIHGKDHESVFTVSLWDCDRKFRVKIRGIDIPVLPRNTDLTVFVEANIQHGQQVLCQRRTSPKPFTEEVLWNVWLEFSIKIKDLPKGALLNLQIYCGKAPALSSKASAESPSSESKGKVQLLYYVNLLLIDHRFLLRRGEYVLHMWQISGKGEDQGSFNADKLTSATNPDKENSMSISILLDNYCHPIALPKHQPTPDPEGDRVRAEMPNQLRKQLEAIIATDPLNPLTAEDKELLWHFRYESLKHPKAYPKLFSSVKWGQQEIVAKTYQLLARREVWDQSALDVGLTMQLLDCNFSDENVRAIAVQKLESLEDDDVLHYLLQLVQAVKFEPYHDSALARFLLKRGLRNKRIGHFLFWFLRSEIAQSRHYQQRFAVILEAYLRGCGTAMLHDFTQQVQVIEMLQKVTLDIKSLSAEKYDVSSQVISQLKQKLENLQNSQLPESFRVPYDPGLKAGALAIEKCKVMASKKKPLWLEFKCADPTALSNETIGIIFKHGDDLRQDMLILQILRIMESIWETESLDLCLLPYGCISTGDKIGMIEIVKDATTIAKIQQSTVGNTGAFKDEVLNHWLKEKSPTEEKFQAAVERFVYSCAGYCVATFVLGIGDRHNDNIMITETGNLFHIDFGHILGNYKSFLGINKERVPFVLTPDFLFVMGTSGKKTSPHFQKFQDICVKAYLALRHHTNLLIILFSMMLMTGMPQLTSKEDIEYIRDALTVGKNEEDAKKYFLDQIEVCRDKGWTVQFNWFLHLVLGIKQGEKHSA

[19] = test system: Tyrosine-protein kinase ABL1 (Homo sapiens), P00519 [T315I]; conditions: Compound concentration 1000.0 nM
[20] = test system: Receptor-type tyrosine-protein kinase FLT3 (Homo sapiens), P36888 [UNDEFINED MUTATION]; conditions: Compound concentration 1000.0 nM
[21] = target: Serine/threonine-protein kinase 3 (Homo sapiens) (UniProt Q13188); conditions: Compound concentration 1000.0 nM
[22] = target: Calcium/calmodulin-dependent protein kinase type IV (Homo sapiens) (UniProt Q16566); conditions: Compound concentration 1000.0 nM
[23] = test system: Phosphatidylinositol 4,5-bisphosphate 3-kinase catalytic subunit alpha isoform (Homo sapiens), P42336 [E545A]; conditions: Compound concentration 1000.0 nM
[24] = target: 5-hydroxytryptamine receptor 3A (Homo sapiens) (UniProt P46098); conditions: Compound concentration 10.0 uM
[25] = target: Ephrin type-B receptor 1 (Homo sapiens) (UniProt P54762); conditions: Compound concentration 1000.0 nM
Ephrin type-B receptor 1 (Homo sapiens), sequence (P54762 whole entry): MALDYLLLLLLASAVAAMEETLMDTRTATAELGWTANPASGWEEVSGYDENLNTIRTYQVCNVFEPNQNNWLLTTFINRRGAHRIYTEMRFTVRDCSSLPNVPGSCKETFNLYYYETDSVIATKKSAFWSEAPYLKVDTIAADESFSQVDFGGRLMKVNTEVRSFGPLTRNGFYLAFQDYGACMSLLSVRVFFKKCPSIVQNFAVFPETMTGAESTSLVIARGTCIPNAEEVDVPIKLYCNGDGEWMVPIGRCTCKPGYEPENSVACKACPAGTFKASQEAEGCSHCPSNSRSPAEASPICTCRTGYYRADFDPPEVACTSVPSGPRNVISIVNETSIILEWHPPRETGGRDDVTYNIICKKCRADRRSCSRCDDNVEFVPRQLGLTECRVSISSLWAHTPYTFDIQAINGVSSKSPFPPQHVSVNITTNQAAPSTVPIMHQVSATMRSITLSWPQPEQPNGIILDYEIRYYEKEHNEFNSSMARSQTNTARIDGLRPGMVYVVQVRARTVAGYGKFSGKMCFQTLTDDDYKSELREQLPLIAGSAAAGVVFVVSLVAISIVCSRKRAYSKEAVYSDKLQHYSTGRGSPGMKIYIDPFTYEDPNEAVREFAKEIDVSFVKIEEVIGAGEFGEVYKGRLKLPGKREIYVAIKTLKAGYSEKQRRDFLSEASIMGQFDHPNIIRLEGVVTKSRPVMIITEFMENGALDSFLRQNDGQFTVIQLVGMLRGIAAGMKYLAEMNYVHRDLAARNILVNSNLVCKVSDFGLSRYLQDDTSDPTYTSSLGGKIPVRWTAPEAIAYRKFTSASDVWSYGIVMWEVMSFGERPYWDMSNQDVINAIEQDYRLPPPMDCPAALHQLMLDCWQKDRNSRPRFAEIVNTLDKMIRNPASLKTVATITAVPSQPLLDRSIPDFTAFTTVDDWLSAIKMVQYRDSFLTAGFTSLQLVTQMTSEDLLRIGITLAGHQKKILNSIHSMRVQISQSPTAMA

[26] = target: Mitogen-activated protein kinase kinase kinase 11 (Homo sapiens) (UniProt Q16584); conditions: Compound concentration 1000.0 nM
[27] = target: Cyclin-dependent kinase 2 homolog (Plasmodium falciparum (isolate 3D7)) (UniProt P61075); conditions: Compound concentration 1000.0 nM
[28] = target: Phosphatidylinositol 4-kinase beta (Homo sapiens) (UniProt Q9UBF8); conditions: Compound concentration 1000.0 nM
Phosphatidylinositol 4-kinase beta (Homo sapiens), sequence (Q9UBF8 2-816 limits assumed): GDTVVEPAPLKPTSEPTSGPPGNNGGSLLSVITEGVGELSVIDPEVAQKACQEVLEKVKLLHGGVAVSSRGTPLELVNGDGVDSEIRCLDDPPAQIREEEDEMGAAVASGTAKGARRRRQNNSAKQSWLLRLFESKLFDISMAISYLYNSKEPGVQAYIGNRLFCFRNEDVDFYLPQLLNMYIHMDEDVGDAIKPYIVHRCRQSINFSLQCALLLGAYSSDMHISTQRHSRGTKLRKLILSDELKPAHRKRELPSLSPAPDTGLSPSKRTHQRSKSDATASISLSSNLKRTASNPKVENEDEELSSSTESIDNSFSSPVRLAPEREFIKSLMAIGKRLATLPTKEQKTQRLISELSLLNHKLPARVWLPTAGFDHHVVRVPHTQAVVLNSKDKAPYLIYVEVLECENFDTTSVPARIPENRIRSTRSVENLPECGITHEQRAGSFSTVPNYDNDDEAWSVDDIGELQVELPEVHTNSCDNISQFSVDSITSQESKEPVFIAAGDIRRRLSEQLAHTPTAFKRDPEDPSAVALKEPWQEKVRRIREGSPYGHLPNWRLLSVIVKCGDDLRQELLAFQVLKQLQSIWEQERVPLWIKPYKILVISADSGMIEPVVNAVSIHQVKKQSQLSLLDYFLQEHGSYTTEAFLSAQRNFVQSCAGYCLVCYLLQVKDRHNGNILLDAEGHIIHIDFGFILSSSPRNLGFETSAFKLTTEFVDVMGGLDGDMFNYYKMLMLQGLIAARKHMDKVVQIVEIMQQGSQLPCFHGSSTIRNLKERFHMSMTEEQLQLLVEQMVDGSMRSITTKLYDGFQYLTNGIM

[29] = target: Mast/stem cell growth factor receptor Kit (Homo sapiens) (UniProt P10721); conditions: Compound concentration 1000.0 nM
[30] = target: Mitogen-activated protein kinase kinase kinase kinase 4 (Homo sapiens) (UniProt O95819); conditions: Compound concentration 1000.0 nM
[31] = target: Calcium-dependent protein kinase 1 (Plasmodium falciparum) (UniProt P62344); conditions: Compound concentration 1000.0 nM
[32] = target: MAP kinase-interacting serine/threonine-protein kinase 2 (Homo sapiens) (UniProt Q9HBH9); conditions: Compound concentration 1000.0 nM
[33] = target: Tyrosine-protein kinase TXK (Homo sapiens) (UniProt P42681); conditions: Compound concentration 1000.0 nM
[34] = target: Mitogen-activated protein kinase kinase kinase kinase 5 (Homo sapiens) (UniProt Q9Y4K4); conditions: Compound concentration 1000.0 nM
[35] = target: Cyclin-dependent kinase 15 (Homo sapiens) (UniProt Q96Q40); conditions: Compound concentration 1000.0 nM
[36] = target: Serine/threonine-protein kinase PAK 4 (Homo sapiens) (UniProt O96013); conditions: Compound concentration 1000.0 nM
[37] = target: Mu-type opioid receptor (Homo sapiens) (UniProt P35372); conditions: Compound concentration 10.0 uM
[38] = target: Phosphatidylinositol 4,5-bisphosphate 3-kinase catalytic subunit delta isoform (Homo sapiens) (UniProt O00329); conditions: Compound concentration 1000.0 nM
[39] = test system: Phosphatidylinositol 4,5-bisphosphate 3-kinase catalytic subunit alpha isoform (Homo sapiens), P42336 [H1047Y]; conditions: Compound concentration 1000.0 nM
[40] = target: Serine/threonine-protein kinase STK11 (Homo sapiens) (UniProt Q15831); conditions: Compound concentration 1000.0 nM
[41] = target: Serine/threonine-protein kinase PLK1 (Homo sapiens) (UniProt P53350); conditions: Compound concentration 1000.0 nM
[42] = target: Serine/threonine-protein kinase mTOR (Homo sapiens) (UniProt P42345); conditions: Compound concentration 1000.0 nM
[43] = target: Tyrosine-protein kinase ABL1 (Homo sapiens) (UniProt P00519); conditions: Compound concentration 1000.0 nM
[44] = target: Serine/threonine-protein kinase tousled-like 2 (Homo sapiens) (UniProt Q86UE8); conditions: Compound concentration 1000.0 nM
Serine/threonine-protein kinase tousled-like 2 (Homo sapiens), sequence (Q86UE8 whole entry, looked up): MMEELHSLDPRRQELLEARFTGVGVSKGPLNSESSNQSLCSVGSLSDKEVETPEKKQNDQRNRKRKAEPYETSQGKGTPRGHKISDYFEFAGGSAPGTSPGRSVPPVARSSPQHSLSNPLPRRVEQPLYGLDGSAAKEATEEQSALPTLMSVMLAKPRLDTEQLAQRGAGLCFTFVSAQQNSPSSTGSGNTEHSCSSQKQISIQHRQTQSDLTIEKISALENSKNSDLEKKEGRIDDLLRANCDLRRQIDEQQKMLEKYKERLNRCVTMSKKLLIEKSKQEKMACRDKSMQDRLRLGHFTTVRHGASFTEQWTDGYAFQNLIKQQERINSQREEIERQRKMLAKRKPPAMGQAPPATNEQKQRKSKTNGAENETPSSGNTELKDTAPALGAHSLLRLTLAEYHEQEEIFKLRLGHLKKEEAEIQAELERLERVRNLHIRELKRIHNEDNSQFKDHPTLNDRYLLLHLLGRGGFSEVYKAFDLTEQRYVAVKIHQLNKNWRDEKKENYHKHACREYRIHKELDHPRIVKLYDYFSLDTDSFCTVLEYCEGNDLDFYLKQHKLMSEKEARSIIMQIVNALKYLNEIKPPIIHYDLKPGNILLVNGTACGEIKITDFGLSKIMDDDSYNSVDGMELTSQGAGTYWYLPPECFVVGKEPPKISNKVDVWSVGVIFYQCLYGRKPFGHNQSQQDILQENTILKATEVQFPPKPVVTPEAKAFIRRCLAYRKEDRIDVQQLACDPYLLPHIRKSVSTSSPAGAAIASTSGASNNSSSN

CN([C@@H]1CCc2c(CC(=O)O)c3cc(S(C)(=O)=O)ccc3n2C1)S(=O)(=O)c1ccc(F)cc1
inactive: residual activity [1] 100% | residual activity [2] 92% | residual activity [3] 91% | residual activity [4] 100% | residual activity [5] 77% | residual activity [6] 92% | residual activity [7] 100% | residual activity [8] 100% | residual activity [9] 100% | residual activity [10] 59% | residual activity [11] 100% | residual activity [12] 95% | residual activity [13] 100% | residual activity [14] 93% | residual activity [15] 85% | residual activity [16] 86% | residual activity [17] 100% | residual activity [18] 100% | residual activity [19] 93% | residual activity [20] 98% | residual activity [21] 98% | residual activity [22] 87% | residual activity [23] 96% | inhibition [24] -2.99% | residual activity [25] 100% | residual activity [26] 100% | residual activity [27] 100% | residual activity [28] 98% | residual activity [29] 86% | residual activity [30] 100% | residual activity [31] 75% | residual activity [32] 100% | residual activity [33] 74% | residual activity [34] 100% | residual activity [35] 84% | residual activity [36] 100% | inhibition [37] 7.34% | residual activity [38] 100% | residual activity [39] 90% | residual activity [40] 69% | residual activity [41] 93% | residual activity [42] 79% | residual activity [43] 95% | residual activity [44] 100%

CN([C@@H]1CCc2c(CC(=O)O)c3ccccc3n2C1)S(=O)(=O)c1ccc(F)cc1 [MK-7246]
inactive: residual activity [1] 100% | residual activity [2] 100% | residual activity [3] 78% | residual activity [4] 100% | residual activity [5] 97% | residual activity [6] 96% | residual activity [7] 100% | residual activity [8] 100% | residual activity [9] 100% | residual activity [10] 93% | residual activity [11] 100% | residual activity [12] 89% | residual activity [13] 100% | residual activity [14] 74% | residual activity [15] 100% | residual activity [16] 100% | residual activity [17] 100% | residual activity [18] 100% | residual activity [19] 98% | residual activity [20] 96% | residual activity [21] 100% | residual activity [22] 85% | residual activity [23] 100% | inhibition [24] -3.85% | residual activity [25] 100% | residual activity [26] 100% | residual activity [27] 94% | residual activity [28] 100% | residual activity [29] 100% | residual activity [30] 100% | residual activity [31] 90% | residual activity [32] 100% | residual activity [33] 93% | residual activity [34] 100% | residual activity [35] 100% | residual activity [36] 100% | inhibition [37] 1.33% | residual activity [38] 95% | residual activity [39] 97% | residual activity [40] 56% | residual activity [41] 98% | residual activity [42] 100% | residual activity [43] 100% | residual activity [44] 100%
